In patent publication US20260144769A1, “4-PHENYLBUTYRATE RESTORED GABA UPTAKE AND REDUCED SEIZURES IN SLC6A1 VARIANT-MEDIATED DISORDERS” (Vanderbilt University, priority 2022, published 2026):

Experiments:
Type in all cases: cell-based
[1] = molecular target: T1, GAT-1 (Rattus norvegicus, UniProt P23978); assay: 3H GABA uptake, HEK cells transfected with GAT-1 cDNA with or without PBA (dual therapy)
T1 construct: EYFP (N); expressed in transfected cells; host or cells: HEK (HEK293T) cells
Experimental: In cell models, HEK293T cells were transfected with SLC6A1, SLC6A1(A288V) or SLC6A1(S295L) cDNAs. The live cells were then fluxed and evaluated for GABA uptake with a 3H radiolabeling GABA uptake assay. In order to evaluate gene expression and protein trafficking, total protein from cell lysates were subjected to SDS-PAGE and immunoblotted for GAT-1 and GFP. Gene expression was evaluated at a variety of gene therapy dosages.

[2] = molecular target: GAT-1 L460R (Rattus norvegicus, UniProt P23978, L460R); assay: 3H GABA uptake, HEK293T, mutant cDNA alone ("homozygous"); parameters: The coding region of rGAT-1 was inserted into pEYFP-C1 (Clontech, Palo Alto, CA); expressed in transfected cells; host or cells: HEK293T cells; conditions: PBA 2 mM, 24 hrs
Experimental: GABA uptake activity was measured by the high-throughput 3H radio-labeling GABA uptake on a liquid scintillator with QuantaSmart. […] HEK293T cells were transfected with the wildtype or the mutant GAT-1^YFP cDNAs alone for 48 hr. […] HEK293T cells were transfected with the wildtype GAT-1^YFP alone or in mixture of the wildtype or the mutant cDNAs for 48 hr. In the mixed condition, the ratio of the wildtype GAT-1 with pcDNA or the mutant cDNAs are 1:1 with the total cDNA amount of 0.5 μg. […] Both wt and the mutant were normalized to its own DMSO treated conditions. 966 stands for the wildtype treated with CI-966 (50 μM) while 711 stands for NNC-711 (35 μM). (N=4-7 different transfections. In FIG. 4A and FIG. 4B, *P<0.05, **P<0.01, ***p<0.001 vs. wt 0. In FIG. C and FIG. 4D, *P<0.05, **P<0.01, ***p<0.001 vs. its own DMSO treated. In FIG. 4C, ns stands for no significance. One-way analysis of variance (ANOVA) and Newman-Keuls test. Values were expressed as mean±S.E.M.
The plasmid cDNA encoding enhanced yellow fluorescent protein (EYFP)-tagged rat GAT-1 has been previously described. […]
(§1) Briefly, cells were cultured in […] dishes for 3 days before the GABA uptake experiment in DMEM with 10% fetal bovine serum and 1% penicillin/streptomycin. […] Glacial acetic acid was added, and lysates were then determined on a liquid scintillator with QuantaSmart. […]

[3] = molecular target: GAT-1 E16X (Rattus norvegicus, UniProt P23978); assay: 3H GABA uptake, corrected iPSC astrocytes transfected with GAT-1^YFP cDNA; parameters: The coding region of rGAT-1 was inserted into pEYFP-C1 (Clontech, Palo Alto, CA); expressed in transfected cells; host or cells: human astrocytes differentiated from CRISPR-corrected patient iPSCs; conditions: 2 mM PBA, 24 hrs
Experimental: Live images of human neural progenitor cells (NPCs), astrocytes and GABAergic inhibitory neurons differentiated from the human induced pluripotent stem cells (iPSCs) on the day of experiment. […] The DMSO treated corrected or patient cells was taken as 1. […] GABA flux was measured after 30 min transport at room temperature. The influx of GABA, expressed in pmol/μg protein/min, was averaged from duplicates for each condition and for each transfection. The average counting was DMSO treated condition taken as 1. In FIG. 5B, FIG. 5D and FIG. 5F, 966 stands for CI-966 (50 μM) and 711 stands for NNC-711 (35 μM) that was applied 30 min to the astrocytes transfected with the wildtype GAT-1^YFP before preincubation and removed during preincubation. In FIGS. 5B and D, ***p<0.001 vs. corrected DMSO treated. § § <0.01, § § § p<0.001 vs. patient DMSO treated. […] In FIGS. 5B-E, n=4-8 batches of cells. In FIG. 5F, n=4-5 different transfections). Unpaired t test was used for FIG. 5C and FIG. 5E. […] Values were expressed as mean±S.E.M.). […]
as §1

For O=C(O)CCCc1ccccc1 [PBA, 4-phenylbutyric acid], the “GABA uptake, combined cDNA/PBA treatment vs. cDNA alone” value ([1]; 0.25 μg GAT-1 cDNA + 2 mM PBA vs. 0.5 μg GAT-1 cDNA alone) was “No significant difference”, the “GABA uptake function, dual therapy vs. cDNA treatment alone” value ([1]; equal cDNA amount with PBA, variety of cDNA doses in HEK cells) was “greater GABA uptake function at all but one dose size” and the “GABA uptake normalized to its own DMSO treated condition” value [2] was 1.14±0.07. For the same compound, the “GABA uptake normalized to its DMSO treated” value [3] was 1.182±0.025.
